Experimental data taken from patent publication US6683052B1, “Lipopeptides containing an interferon-γ fragment, and uses thereof in pharmaceutical compositions” (Institut National de la Sante et de la Recherche Medicale …, priority 1998, dated 2004).
Where no end group is shown, it is not given here. The star is where a group is joined. Palmitoyl = CCCCCCCCCCCCCCCC(=O)*

Tests used:
P388D1 = assay: Induction of class II CMH molecules on P388D1 cell line, flow cytometry; type: cell-based, murine; settings: 50 μM, stimulated for 24 hours
Experimental: (§1) Principle: to check the induction of class II CMH molecules on cell lines (P388D1 and WEHI3: murine myelomonocytes) with the above-mentioned peptides.
(§2) Procedure. The cells are cultured the day before at a rate of 3×10^5 cells per well in 24-well culture plates (NUNC). The following day, the cells are stimulated with the various lipopeptide and peptide constructs at a final concentration of 50 μM in 1 ml of medium. After incubation for 24 hours at 37° C. in an atmosphere saturated with 5% CO2, the cells are recovered and incubated for 1 hour at 4° C. with 3 μg of a biotinylated mouse anti-I-Ad monoclonal antibody (Pharmingen, San Diego, USA). After revelation for 30 minutes with FITC streptavidin used at a dilution of 1:100 (Sigma, St. Louis, USA), the expression of class II molecules is determined by flow cytometry.

WEHI3 = assay: Induction of class II CMH molecules on WEHI3 cell line, flow cytometry; type: cell-based, murine; settings: 50 μM, stimulated for 24 hours
Experimental: as §1, §2

splenocytes = assay: Expression of class II CMH molecules and Fc-γ receptors on splenocytes taken from an animal; type: cell-based, Balb/c mouse; settings: 50 μM, 24 hours
Experimental: (§3) Principle: to evaluate the activity of the vectorized agonist on cells taken from an animal and treated in vitro (in order to assess the value of a subsequent in vivo study).
(§4) Procedure. The splenocytes and peritoneal cells taken from an animal (Balb/c mouse) are re-cultured at a rate of 2.5×10^6 splenocytes and […] peritoneal cells per well in 24-well plates (NUNC) stimulated with 50 μM of the different peptides in a final volume of 1 ml. After stimulation for 24 hours, the cells are labelled with the anti IA^d monoclonal antibody described in the preceding paragraph, according to the same protocol. To detect the Fc-γ R, the cells are labelled with 1 μg of a rat anti Fc-γ R monoclonal antibody (Pharmingen, San Diego, USA). Next, the cells are incubated for ½ hour with a rat anti IgG biotinylated polyclonal antibody. The revelation is then carried out with FITC streptavidin used at a dilution of 1:100 (Sigma, St. Louis, USA). The expression of Fc-γ R is determined by flow cytometry.

peritoneal cells = assay: Expression of class II CMH molecules and Fc-γ receptors on peritoneal cells taken from an animal; type: cell-based, Balb/c mouse; settings: 50 μM, 24 hours, flow cytometry
Experimental: as §3, §4

[1] = tested on: splenocytes taken from mice 129 (Wild type: WT); assay: Involvement of the IFN-γ receptor: IA^d and Fc-γ R on splenocytes of wild type mice 129; type: cell-based; settings: stimulation for 24 hours, flow cytometry
Experimental: as §4
(§5) Principle. to confirm that the biological activity observed was effectively associated with a stimulation of the IFN-γ receptor, we repeated the same experiments, in parallel on splenocytes taken from mice 129 (Wild type: WT) and on cells taken from mice 129 no longer expressing the alpha chain of the IFN-γ receptor (KO mice).
(§6) Procedure. The experimental protocol followed is identical to that described in paragraph 2 above.

[2] = tested on: cells taken from mice 129 no longer expressing the alpha chain of the IFN-γ receptor (KO mice); assay: Involvement of the IFN-γ receptor: IA^d and Fc-γ R on cells of mice lacking the alpha chain of the IFN-γ receptor; type: cell-based; settings: stimulation for 24 hours, flow cytometry
Experimental: as §4, §5, §6

[3] = tested on: human colon carcinoma cells (COLO 205); assay: Induction of HLA-DR on COLO 205 cell line, flow cytometry; type: cell-based; settings: COLO 205, 50 μM
Experimental: Principle: human colon carcinoma cells (COLO 205) are analysed for their ability to express HLA-DR after having been stimulated with the various peptide constructs.
Procedure. The cell line COLO 205 is cultured at a rate of 3×10^5 cells per well in a 24-well culture plate (NUNC). The following day, the cells are stimulated with the various peptide constructs at a final concentration of 50 μM in 1 ml of medium, and are incubated at 37° C. for 24 hours. The cells are then recovered and labelled using 3 μg of an anti HLA-DR mouse biotinylated monoclonal antibody (clone L243). After revelation with FITC streptavidin, the cells are analysed by flow cytometry.

[4] = tested on: human peripheral blood mononuclear cells (PBMC); assay: Induction of HLA-DR, ICAM-1 and VCAM-1 on human PBMC; type: cell-based; settings: 24 hours
Experimental: Principle. In the light of the results obtained on the human cell line and on human primary cultures, the immunostimulatory potential of MuL was evaluated on human cells taken directly from a healthy donor.
Procedure. PBMCs are isolated from a bag of blood and the cells are then cultured and stimulated for 24 hours with 25 and 50 μM of MuSL or MuL in a final volume of 1 ml. The cells are then recovered and labelled for the expression of VCAM-1, ICAM-1 and HLA-DR according to the protocol already described above. Finally, the cells are analysed by flow cytometry.

[5] = tested on: L929 cells infected with the VSV virus; type: cell-based, mouse; settings: 1 to 10 μM
[6] = tested on: splenocytes stimulated with anti-CD40 and IL-4; assay: Inhibition of IL-4 activity: anti-CD40 + IL-4 proliferation of splenocytes, tritiated thymidine; type: cell-based, Balb/c mice; settings: 10 μM
Text: It is commonly described that the immunomodulatory potential of IFN-γ lies in its ability to polarize the establishment of a type-1 T helper (Th1) response, while at the same time inhibiting the development of a type-2 T helper (Th2) response. This inhibitory action on the polarization of the Th2 response takes place mainly via inhibition of the activity of IL-4. […] The stimulation of splenocytes with an anti-CD40 antibody (antibody directed against a surface cell label: CD40) and IL-4 induces a proliferation of the murine B cells, following a synergistic action between the CD40 and IL-4 stimulation (Hasbold et al. 1994).
The splenocytes taken from Balb/c mice are cultured and stimulated with anti-CD40 (10 μg/ml) and IL-4 (10 U/ml). 10 μM of the synthetic agonist of IFN-γ (MuL) or of its control lipopeptide (MuSL) are added. After stimulation for 24 hours, tritiated thymidine is added at a rate of 0.5 μCurie per well. After incubation for 18 hours, the cells are filtered off and the incorporation of tritiated thymidine is evaluated. This incorporation is proportional to the cell proliferation.

murine splenocytes = assay: Induction of class II CMH molecules (IA^b) on murine splenocytes by lipopeptide fragments (FIG. 12A); type: cell-based, 129 Sv mice; settings: murine splenocytes, 24 hours, different concentrations
Experimental: (§7) Fresh splenocytes are obtained from 7-week-old female 129 Sv mice. The COLO 205 human colon carcinoma lines are obtained from the ATCC (American Type Culture Collection). The splenocytes and COLO 205 cells are maintained in RPMI 1640 (Gibco BRL, Courbevoie, France), supplemented with 10% FCS (Gibco BRL), sodium pyruvate (Sigma, St. Louis, USA) and incubated at 37° C. in 5% CO2.
(§8) The cells were stimulated for 24 hours with different concentrations of MuL, L-mIFNγ 113-132, L-mIFNγ 122-132 or MuSL. The murine splenocytes and COLO 205 cells were labelled for the expression of II MHC with 1 μg of anti-mouse IA^b FITC monoclonal antibody (mAb) (Pharmingen, San Diego, USA) and 10 μl of anti-HLA-DR clone TAL.1B5 mouse FITC mAb (Cymbus Biotechnology Ltd, Hants, UK), respectively. A negative control mouse FITC IgG1 (DAKO S. A., Trappes, France) was used as control isotype. The cells were incubated for 1 hour at 4° C. in PBS, 10% FCS and then washed, and the expression of II MHC was analysed by flow cytometry using a Coulter EPILS II cytometer (Coulter, Hialeah, Fla., USA) at a rate of 10,000 events per sample.
(§9) FIG. 12: Induction of class II CMH molecules by human or murine cells stimulated with lipopeptides derived from IFN-γ. The murine splenocytes (A) and the COLO 205 human cell line (B) were incubated for 24 hours with different concentrations of lipopeptides derived from IFN-γ. The cells were labelled with a monoclonal antibody directed against the class II CMH molecules, and analysed by flow cytometry. The ratio between the average fluorescence intensity of the cells treated with the lipopeptides and between the average fluorescence intensity of the untreated cells is indicated on the y-axis. The lipopeptide concentration is indicated in μM on the x-axis; MuL: solid circles; MuSL : hollow circles; L-mIFN 113-132: triangles; L-mIFN 122-132: X.

COLO 205 human cell line = assay: Induction of HLA-DR on COLO 205 cells by lipopeptide fragments (FIG. 12B); type: cell-based; settings: COLO 205, 24 hours, different concentrations
Experimental: as §7, §8, §9

MuSL: control "scrambled" lipopeptide: MuL in which the order of the amino acids has been rearranged, Ac-K(Pam) (Ac-K(Palmitoyl)PSRENQNAVKIQKLSVVLRREQKHRVERLAFRNQSLPF)
percentage of class II CMH detected by flow cytometry, P388D1 (P388D1): 13%
percentage of class II CMH detected by flow cytometry, WEH1 (WEHI3): 15%
splenocytes II CMH (%) (splenocytes; flow cytometry): 14%
splenocytes RFc (%) (splenocytes; flow cytometry): 15%
increase of IA^d and of Fc-γ R on the treated cells (splenocytes; splenocytes and peritoneal cells): no notable activity
peritoneal cells II CMH (%) (peritoneal cells): 13%
peritoneal cells RFc (%) (peritoneal cells): 20%
WT mice II CMH (%) [1]: 4%
WT mice RFc (%) [1]: 2%
KO mice II CMR (%) [2]: 4%
KO mice RFc (%) [2]: 3%
induction of the expression of HLA-DR [3]: no activity
% HLA-DR ([3]; 24 hours, flow cytometry): 8.9%
percentage of ICAM-1 detected on PBMCs ([4]; 25 μM): 29.4%
percentage of VCAM-1 detected on PBMCs ([4]; 25 μM): 39.7%
percentage of HLA-DR detected on PBMCs ([4]; 50 μM): 58.3%
percentage of ICAM-1 detected on PBMCs ([4]; 50 μM): 32%
percentage of VCAM-1 detected on PBMCs ([4]; 50 μM): 86.9%
effect on viral lysis (FIG. 2) [5]: no effect on viral lysis
effect on the synergistic anti-CD40 + IL-4 proliferation (FIG. 4) [6]: no effect
increase in class II CMH molecules (FIG. 12A) (murine splenocytes): neither L-mIFN-γ 122-132 nor MuSL are active
increase in class II CMH molecules (FIG. 12B) (COLO 205 human cell line): neither L-mIFN-γ 122-132 nor MuSL are active
